Reference: patent publication US6610653B1, “Therapeutic preparation for inhalation” (priority 1994, dated 2003)

Tests used:
[1] = Selection of enhancers: inhaled insulin/enhancer powder in rat model, blood glucose levels; type: in vivo; settings: for Effect (decrease in blood glucose level): rat, inhalation; for usefulness as enhancer of insulin absorption in the lung: tested as enhancer in the method of the invention, rat model; on Effect (decrease in blood glucose level): key: +: significant decrease in blood glucose level; (+): moderate decrease in blood glucose level; −: no or very small decrease in blood glucose level
Experimental: Each of the compounds listed in Table III was tested for its ability to enhance uptake of insulin, and thus affect blood glucose levels, in a rat model. Various forms of insulin were employed: recombinant or semisynthetic human or bovine. […] The powder was administered to rats by inhalation, and the blood glucose levels of the rats were subsequently monitored. These levels were compared to the corresponding values obtained from rats which had inhaled insulin formulations without enhancer.

CaCo-2 cell monolayer = test: In vitro CaCo-2 epithelial cell monolayer transport assay; type: in vitro ADME
From the text: A standard in vitro assay utilizing an epithelial cell line, CaCo-2 (available through the American Type Culture Collection (ATCC), Rockville, Md., USA), has been developed to assess the ability of various enhancer compounds to promote transport of insulin and other markers across an epithelial cell monolayer, as a model for the epithelial cell layer which functions in the lung to separate the alveolus from the pulmonary blood supply. In this assay, the enhancer and insulin or other marker are dissolved in aqueous solution at various proportions and/or concentrations, and applied to the apical side of the cell monolayer. After 60 min incubation at 37° C. and 95% RH (relative humidity), the amount of the marker on the basolateral side of the cells is determined: for example, by use of a radioactively labelled marker. […] This concentration of sodium caprate (16 mM) was also found to promote absorption of insulin across the cell monolayer. The amount of insulin which passed across the monolayer doubled in the presence of 16 mM sodium caprate, compared to the amount in the absence of any enhancer. It is expected that at higher concentrations of sodium caprate, the permeability of the cells will be further increased; however, the potential cytotoxicity of sodium caprate may prevent the use of substantially higher concentrations of this particular enhancer.

[2] = Insulin combined with sodium caprate in various w/w proportions, in vivo models
From the text: In general, it is desirable to keep the ratio of insulin to enhancer as high as possible, within the range that permits fast and efficient enhancement of insulin absorption. This is important in order to minimize the risk of adverse effects, both local and systemic, attributable to the enhancer. The optimal ratio of insulin to enhancer can be ascertained for any given enhancer by testing various proportions in in vivo models such as described herein. For example, insulin was combined with sodium caprate in the following w/w proportions: 50/50, 75/25, 82.5/17.5, and 90/10. […] Other enhancers may have higher or lower optimal concentrations relative to insulin, and each individual enhancer must therefore be separately tested.

[3] = Enhancer:Insulin:lactose 2:4:94
[4] = Enhancer:Insulin:lactose 4:4:92
[5] = Enhancer:Insulin:lactose 25:75:0

Compound | Effect (decrease in blood glucose level) [1, 4] | usefulness as enhancer of insulin absorption in the lung [1] | further results
CCCCCCCCCC(=O)OC[C@H](COP(=O)([O-])OCC[N+](C)(C)C)OC(=O)CCCCCCCCC [Didecanoylphospatidylcholine] |  |  | Effect (decrease in blood glucose level) ([1]; Enhancer:Insulin:lactose 4:4:94): −
CCCCCCCC(=O)OCC(COP(=O)([O-])OCC[N+](C)(C)C)OC(=O)CCCCCCC (stereo not shown) [Dioctanoylphosphatidylcholine] |  |  | Effect (decrease in blood glucose level) [1, 3]: (+)
CCCCCCCCOC1O[C@H](CO)[C@@H](O)[C@H](O)[C@H]1O (stereo partly shown) [Octylglucopyranoside] | (+) | some absorption enhancing properties | 
CCCCCCCCCC(=O)[O-].[K+] [Potassium caprate] |  | effective | Effect (decrease in blood glucose level) ([1]; Enhancer:Insulin:lactose 27:73:0): +
CCCCCCCC/C=C\CCCCCCCC(=O)[O-].[K+] [Potassium oleate] | + |  | 
CCCCCCCCCC(=O)[O-].[Na+] [Sodium caprate] | + | perform well | amount of insulin which passed across the monolayer, compared to absence of any enhancer (CaCo-2 cell monolayer; 16 mM sodium caprate): doubled; amount of marker (mannitol) which appears on the basolateral side, insulin added (CaCo-2 cell monolayer; 60 min at 37° C., 1:3 sodium caprate:insulin by weight, FIG. 8): true even when insulin is added; amount of marker (mannitol) which appears on the basolateral side (CaCo-2 cell monolayer; 60 min at 37° C., up to 16 mM sodium caprate, FIG. 7): dependent upon the concentration of enhancer used; improvement in absorption of insulin ([2]; insulin/sodium caprate w/w 50/50 (50% sodium caprate)): Significant improvement; improvement in absorption of insulin ([2]; insulin/sodium caprate w/w 75/25 (25% sodium caprate)): Significant improvement; improvement in absorption of insulin ([2]; insulin/sodium caprate w/w 82.5/17.5 (17.5% sodium caprate)): intermediate; improvement in absorption of insulin ([2]; insulin/sodium caprate w/w 90/10 (10% sodium caprate)): poor improvement; lowest effective concentration of sodium caprate ([2]; proportion of enhancer relative solely to insulin, 'probably 20-25%'): 15-25%; Effect (decrease in blood glucose level) ([1]; Enhancer:Insulin:lactose 10:90:0): (+); Effect (decrease in blood glucose level) ([1]; Enhancer:Insulin:lactose 17.5:82.5:0): (+); Effect (decrease in blood glucose level) [1, 5]: +
CCCCCCCC(=O)[O-].[Na+] [Sodium caprylate] |  |  | Effect (decrease in blood glucose level) [1, 5]: +
C[C@H](CCC(=O)NCC(=O)[O-])[C@H]1CC[C@H]2[C@@H]3[C@H](O)C[C@@H]4C[C@H](O)CC[C@]4(C)[C@H]3C[C@H](O)[C@]12C.[Na+] [Sodium glycocholate] | + | effectively enhance insulin absorption in the lung | 
CCCCCCCCCCCC(=O)[O-].[Na+] [Sodium laurate] |  | perform well | Effect (decrease in blood glucose level) [1, 5]: (+)
CCCCCCCCCCCCCC(=O)[O-].[Na+] [Sodium myristate] |  | perform well | Effect (decrease in blood glucose level) ([1]; Enhancer:Insulin:lactose 30:70:0): +
C[C@H](CCC(=O)NCCS(=O)(=O)O)[C@H]1CC[C@H]2[C@@H]3[C@H](O)C[C@@H]4C[C@H](O)CC[C@]4(C)[C@H]3C[C@H](O)[C@]12C [Sodium taurocholate] | + | effectively enhance insulin absorption in the lung | 
CC(=O)OC1CC2(C)C(CC(O)C3C4(C)CCC(O)C(C)C4CCC32C)C1=C(CCCC(C)C)C(=O)NCCS(=O)(=O)O (stereo not shown) [Sodium taurodihydrofusidate] |  | effectively enhance insulin absorption in the lung | Effect (decrease in blood glucose level) [1, 3]: +
C[C@H](CCC(=O)[O-])[C@H]1CC[C@H]2[C@@H]3[C@@H](O)C[C@@H]4C[C@H](O)CC[C@]4(C)[C@H]3CC[C@]12C.[Na+] [Sodium ursodeoxycholate] | + | effectively enhance insulin absorption in the lung | 
Dimethyl-β-cyclodextrin |  | absorption enhancing effect | Effect (decrease in blood glucose level) ([1]; Enhancer:Insulin:lactose 75:25:0): +
Lysine caprate |  | effective | Effect (decrease in blood glucose level) ([1]; Enhancer:Insulin:lactose 35:65:0): +
Lysophosphatidylcholine | + | effective enhancer | 
sodium salt of ethylenediaminetetraacetic acid |  | ineffective | 
